One block for each compound: values may come before it.
What was measured:
[1] = HPLC-based logD analysis (ODP-50 column); format: physicochemical; settings: for chromatographic logD: HPLC on polymeric ODP-50 column, methanol/phosphate buffer, pH 7.4, HPLC method
Protocol: LogD values were assessed using a HPLC-based protocol according to Donovan and Pescatore. All compounds (as cold reference standards) were injected together with two known compounds—with known logD and k′ values—according to a standard protocol. A polymeric ODP-50 column was used; a linear gradient from 10 % MeOH 90 % 25 mM phosphate buffer (pH 7.4) to 100 % methanol within 9.4 min at a flow-rate of 1.5 mL/min was applied. Internal standards were triphenylene and toluene; detection was performed at 260 and 285 nm.

NET [2] = target: T1, NET (Rattus norvegicus, UniProt Q63380); test: In vitro autoradiography with [11C]Me@HAPTHI, rat heart slices, competition; format: binding; settings: for % BL-competitor: [11C]Me@HAPTHI binding, BL = baseline; for fmol (calculated relative concentration of transporter protein): limit of detection 0.01 fmol
T1 construct: Wild-type male rats were deeply anesthesized by isoflurane and sacrificed by decapitation; The organs of interest (i.e. brain, heart and testis) were removed; from tissue; host or cells: rat heart, 10 µm cryo-slices
T1 sequence (Q63380 1-617): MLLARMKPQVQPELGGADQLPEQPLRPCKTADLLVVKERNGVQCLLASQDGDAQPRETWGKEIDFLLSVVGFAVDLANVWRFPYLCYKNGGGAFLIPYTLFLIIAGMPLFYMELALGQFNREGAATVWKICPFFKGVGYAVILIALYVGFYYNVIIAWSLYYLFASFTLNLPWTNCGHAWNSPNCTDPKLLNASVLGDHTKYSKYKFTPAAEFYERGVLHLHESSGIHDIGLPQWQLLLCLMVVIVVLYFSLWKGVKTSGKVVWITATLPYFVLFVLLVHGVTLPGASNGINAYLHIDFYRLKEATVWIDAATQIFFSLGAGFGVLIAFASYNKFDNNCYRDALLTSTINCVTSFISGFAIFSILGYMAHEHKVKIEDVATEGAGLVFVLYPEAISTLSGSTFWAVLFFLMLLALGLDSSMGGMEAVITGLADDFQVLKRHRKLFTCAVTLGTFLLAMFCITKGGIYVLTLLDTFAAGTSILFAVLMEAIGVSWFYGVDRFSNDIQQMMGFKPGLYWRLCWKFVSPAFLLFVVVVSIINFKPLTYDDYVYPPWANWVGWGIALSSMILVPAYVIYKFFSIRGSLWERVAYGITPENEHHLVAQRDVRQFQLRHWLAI
Protocol: (§1) In vitro autoradiography was performed with slight modifications according to previously published protocols. Non-specific binding was determined by co-incubation with excess Nisoxetine (10 μM). […] After 1 h at room temperature, incubation was stopped and slices were processed on phosphor imaging films.
(§2) All data was exported to Microsoft Excel for statistical analysis, and the percentage of total specific binding was calculated.
(§3) A buffer for pre-incubation (50 mM TRIS HCl in aqua dest., pH 7.4) and a buffer for the experiment (50 mM TRIS HCl, pH 7.4, 300 mM NaCl, 5 mM KCl, 0.1%w/v ascorbic acid in aqua dest.) were prepared the day before the experiment and stored at 4 °C.
(§4) Tissue sections were allowed to thaw to RT upon thorough vanishing of condense water residues (5-10min). Subsequently, the slices were pre-incubated with the respective buffer at RT for 30 min in a Coplin jar. Slices were taken out of the jar and the buffer residues were removed.
(§5) Non-specific binding was determined by co-incubation with excess Nisoxetine (10 µM). […] To the naïve incubation solution (baseline), a vehicle containing acetonitrile was added in the same concentration as used for the dissolution of the competitors (i.e. 0.3% acetonitrile in the final incubation solution).
(§6) After 1 h the incubation was stopped and the slices were washed twice for 5 min in a jar with ice-cold incubation buffer. Finally, the tissue slides were washed with ice-cold water to remove all residual salts and dried under a smooth air stream. Subsequently, the dry tissue slices were placed on Phosphor-Imager films in a lead shielded cassette for an exposure time of 12 h. Following the analysis of the films with a Cyclone Phosphor Imager, regions of interest (ROI) were analyzed using OptiQuant® software. The signal obtained (digital light units/mm2=DLU/mm^2) was proportional to the radioactivity on the film. Using a calibration curve for each experiment, DLUs were converted into kBq/mm^2. Furthermore, for calculation of NET-density, kBq were converted into fmol by taking into account the specific activity of the radiotracer preparations. All data was exported to Microsoft Excel for statistical analysis and the percentage of total specific binding was calculated.

NET [3] = target: T2, NET (Homo sapiens, UniProt P23975); test: In vitro autoradiography with [11C]Me@HAPTHI, human brain slices, competition; format: binding
T2 construct: The human postmortem tissue (7–9 h postmortem time, no history of neurological diseases) was obtained from the Neurobiobank; from tissue; host or cells: post-mortem human brain (cortex, thalamus, hippocampus, cerebellum, hypothalamus, nucleus caudatus), 10 µm cryo-slices
T2 sequence (P23975 whole entry): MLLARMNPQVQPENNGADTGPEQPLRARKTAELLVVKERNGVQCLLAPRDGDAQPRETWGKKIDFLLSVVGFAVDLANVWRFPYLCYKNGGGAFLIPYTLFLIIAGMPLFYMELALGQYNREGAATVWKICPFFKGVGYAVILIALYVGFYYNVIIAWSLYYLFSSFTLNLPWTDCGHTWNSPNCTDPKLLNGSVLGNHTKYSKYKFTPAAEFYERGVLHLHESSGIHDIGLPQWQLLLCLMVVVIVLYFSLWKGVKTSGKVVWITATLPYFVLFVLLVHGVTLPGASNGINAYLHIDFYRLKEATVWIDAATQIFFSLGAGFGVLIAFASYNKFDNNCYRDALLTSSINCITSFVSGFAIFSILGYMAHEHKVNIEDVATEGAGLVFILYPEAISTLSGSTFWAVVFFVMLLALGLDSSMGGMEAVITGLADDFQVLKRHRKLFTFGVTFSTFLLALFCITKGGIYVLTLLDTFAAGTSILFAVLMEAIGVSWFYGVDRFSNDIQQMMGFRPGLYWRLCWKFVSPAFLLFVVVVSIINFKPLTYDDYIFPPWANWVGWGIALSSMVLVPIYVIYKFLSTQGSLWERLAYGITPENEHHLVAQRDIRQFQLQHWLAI
Protocol: Human brain tissue (cortex, thalamus, hippocampus, cerebellum and hypothalamus) was obtained deeply frozen from the Neurobiobank of the Medical University Vienna and was stored at −80 °C. Before cutting, tissue blocks were thawed slowly within 12 h to −20 °C. The organs were cut at −20 °C in a micro-cryotome into 10-μm-thick slices and thaw mounted onto object slides. Slices were again stored at −80 °C until the beginning of the experiment.
as §1, §2
Human brain tissue (cortex, thalamus, hippocampus, cerebellum, and hypothalamus) was obtained deeply frozen from the Neuro-Biobank of the Medical University Vienna. Upon cutting, all tissue was stored at -80 °C. Before cutting, tissue blocks were thawed slowly within 12 h to -20 °C. The organs were cut at -20°C in a micro-cryotome into 10 µm thick slices and thaw mounted onto object slides. Until the beginning of the experiment, slices were stored at -80°C.
as §3, §4, §5, §6

[4] = target: T3, hNET expressing membranes (Homo sapiens, UniProt P23975); test: Harvesting experiments with [11C]Me@HAPTHI on hNET expressing membranes; format: binding; settings: cold competitor 1-1000 nM, n ≥ 3 triplicates
T3 construct: purchased Perkin Elmer RBHNETM400AU
T3 sequence (P23975 whole entry): as above

NET [5] = target: T2, NET; test: In vitro autoradiography with [11C]Me@HAPTHI, human brain slices, competition; format: binding; settings: human nucleus caudatus
human NET membranes = target: T4, human NET membranes (Homo sapiens, UniProt P23975); test: NET-expressing membrane competitive binding ([3H]nisoxetine); settings: n ≥ 9 triplicates; cold reference compounds; read-out: Kd (affinity, human NET membranes)
T4 construct: purchased Perkin Elmer RBHNETM400AU
T4 sequence (P23975 whole entry): as above
Protocol: The affinity of new radiolabelled ligand was determined in a NET-expressing membrane binding protocol [26, 27].
Data from the competition plots (as arithmetic means of values derived from three different assays, each in triplicate for each compound) were analyzed and subsequently IC50 and Ki values were calculated using GraphPad Prism® software (San Diego, USA).
The affinity of new radiolabeled ligand was determined in a NET-expressing membrane binding protocol [3-5]. […] After incubation time, binding was quenched with ice cold buffer, and membrane bound radioactivity was recovered by rapid vacuum filtration through GF/C glass fiber filters (Whatman® Inc., Clifton, USA) presoaked in assay buffer containing 0.3% polyethylene imine (PEI). […] After addition of a β-scintillation cocktail (2 mL Ultima Gold^TM, biodegradeable, Perkin Elmer), the tubes were shaken for 20 min and then counted. Data from the competition plots (as arithmetic means of values derived from three different assays, each in triplicate for each compound) were analyzed and subsequently IC50 and Ki values were calculated using GraphPad Prism® software (San Diego, USA).

human DAT membranes = target: T5, human DAT membranes (Homo sapiens, UniProt Q01959); test: DAT-expressing membrane binding (selectivity); settings: n ≥ 5 triplicates, read-out: affinity for DAT
T5 construct: purchased Perkin Elmer RBHDATM400UA
T5 sequence (Q01959 whole entry): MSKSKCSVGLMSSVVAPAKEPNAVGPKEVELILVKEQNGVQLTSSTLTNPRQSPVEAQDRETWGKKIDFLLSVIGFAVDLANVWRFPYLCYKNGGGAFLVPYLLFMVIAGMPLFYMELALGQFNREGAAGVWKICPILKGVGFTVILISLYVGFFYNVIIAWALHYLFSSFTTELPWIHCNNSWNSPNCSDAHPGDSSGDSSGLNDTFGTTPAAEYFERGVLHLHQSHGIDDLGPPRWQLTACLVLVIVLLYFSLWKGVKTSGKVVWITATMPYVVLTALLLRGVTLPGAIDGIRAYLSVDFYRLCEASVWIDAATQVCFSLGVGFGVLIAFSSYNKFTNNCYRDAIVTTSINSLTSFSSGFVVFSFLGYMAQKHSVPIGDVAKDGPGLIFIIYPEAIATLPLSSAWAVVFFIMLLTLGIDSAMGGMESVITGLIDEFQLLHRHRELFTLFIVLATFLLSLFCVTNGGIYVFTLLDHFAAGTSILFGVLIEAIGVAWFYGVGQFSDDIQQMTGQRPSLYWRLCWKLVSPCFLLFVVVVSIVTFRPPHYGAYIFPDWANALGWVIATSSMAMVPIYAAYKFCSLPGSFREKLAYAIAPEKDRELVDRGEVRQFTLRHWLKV
Protocol: (§7) IC50 and Ki values were obtained in analogy to NET experiments. Ratios DAT/NET and SERT/NET were determined.
as §7

human SERT membranes = target: T6, human SERT membranes (Homo sapiens, UniProt P31645); test: SERT-expressing membrane binding (selectivity); settings: n ≥ 5 triplicates, read-out: affinity towards SERT
T6 construct: purchased Perkin Elmer RBHSTM400UA
T6 sequence (P31645 whole entry): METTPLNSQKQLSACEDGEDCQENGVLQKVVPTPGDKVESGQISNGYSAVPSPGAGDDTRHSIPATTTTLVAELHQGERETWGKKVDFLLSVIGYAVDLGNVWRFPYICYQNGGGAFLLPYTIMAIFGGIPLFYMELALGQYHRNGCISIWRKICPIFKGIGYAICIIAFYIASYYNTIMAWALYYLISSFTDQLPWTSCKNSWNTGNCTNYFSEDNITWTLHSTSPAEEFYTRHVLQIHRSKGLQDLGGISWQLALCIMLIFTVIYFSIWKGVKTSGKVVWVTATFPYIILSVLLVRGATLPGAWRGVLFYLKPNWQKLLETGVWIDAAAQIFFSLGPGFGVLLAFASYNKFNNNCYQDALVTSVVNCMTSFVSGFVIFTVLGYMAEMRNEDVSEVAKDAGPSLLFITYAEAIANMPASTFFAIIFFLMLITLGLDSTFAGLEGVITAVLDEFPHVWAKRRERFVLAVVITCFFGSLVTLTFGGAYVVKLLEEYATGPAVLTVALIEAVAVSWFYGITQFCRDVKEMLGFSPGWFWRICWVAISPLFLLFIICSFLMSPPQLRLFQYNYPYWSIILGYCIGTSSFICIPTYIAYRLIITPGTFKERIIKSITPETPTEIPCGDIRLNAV
Protocol: as §7, §7

[6] = Plasma free fraction by ultrafiltration; format: in vitro ADME, human; settings: binding to filter matrix of Centrifree vials, phosphate buffer pH 7.4
Protocol: For the determination of free fraction in human pooled plasma, an ultrafiltration protocol according to previously published methods was used. […] For a detailed method, see Additional file 1.
After incubation for 20 min at room temperature, the Centrifree vials were centrifuged for 50 minutes at 1800g. Subsequently, an aliquot of 50 µL of the ultrafiltrate was taken and measured in the γ-counter. The plasma free fraction was subsequently calculated as the ratio of the ultrafiltrate activity to the total plasma activity. […] The final free fraction value was corrected for this unspecific filter binding.

[7] = human cortex, competitor 100 nM
[8] = human hippocampus, competitor 100 nM
[9] = human hippocampus, competitor 1 μM
[10] = human hypothalamus, competitor 100 nM
[11] = human hypothalamus, competitor 1 μM
[12] = human thalamus, competitor 100 nM
[13] = human thalamus, competitor 1 μM

Compound: [2H]C([2H])(F)Oc1ccccc1OC(c1ccccc1)C1CNCCO1 (centres unmarked) [FMeNER-D2]
- logD ([1]; HPLC method, phosphate buffer pH 7.4): 2.73
- % BL-competitor (NET [2]; competitor 100 nM): 99.00 ± 0.07%
- fmol (calculated relative concentration of transporter protein) (NET [2]; competitor 100 nM): <0.01 fmol/mm^2
- % BL-competitor (NET [2]; competitor 1 μM): 88.8 ± 11.2%
- fmol (calculated relative concentration of transporter protein) (NET [2]; competitor 1 μM): <0.01 fmol/mm^2
- % BL-competitor (NET [3]; human cerebellum, competitor 100 nM): 103.9 ± 12.2%
- % BL-competitor (NET [3]; human cerebellum, competitor 1 μM): 108.2 ± 17.3%
- % BL-competitor (NET [3]; [7]): 86.3 ± 11.2 %
- fmol (calculated relative concentration of transporter protein) (NET [3]; [7]): <0.01 fmol/mm^2
- % BL-competitor (NET [3]; human cortex, competitor 1 μM): 71.9 ± 7.9 %
- fmol (calculated relative concentration of transporter protein) (NET [3]; human cortex, competitor 1 μM): 0.86 fmol/mm^2
- % BL-competitor (NET [3]; [8]): 97.1 ± 10.3%
- fmol (calculated relative concentration of transporter protein) (NET [3]; [8]): <0.01 fmol/mm^2
- % BL-competitor (NET [3]; [9]): 67.3 ± 8.2%
- fmol (calculated relative concentration of transporter protein) (NET [3]; [9]): <0.01 fmol/mm^2
- % BL-competitor (NET [3]; [10]): 97.8 ± 14.6%
- fmol (calculated relative concentration of transporter protein) (NET [3]; [10]): 0.11 fmol/mm^2
- % BL-competitor (NET [3]; [11]): 77.4 ± 14.5%
- fmol (calculated relative concentration of transporter protein) (NET [3]; [11]): 0.02 fmol/mm^2
- % BL-competitor (NET [3]; [12]): 77.6 ± 9.8%
- fmol (calculated relative concentration of transporter protein) (NET [3]; [12]): 0.47 fmol/mm^2
- % BL-competitor (NET [3]; [13]): 68.36 ± 2.11%
- fmol (calculated relative concentration of transporter protein) (NET [3]; [13]): 0.71 fmol/mm^2
- displacement of [11C]Me@HAPTHI [4]: concentration-dependent displacement
- % BL-competitor (NET [5]; competitor 100 nM): 102.6 ± 14.5%
- % BL-competitor (NET [5]; competitor 1 μM): 107.6 ± 17.7%

- Kd (human NET membranes): 0.0242 ± 0.0109 µM
- Kd (human DAT membranes): > 10 µM
- Kd (human SERT membranes): 10.3 µM
- chromatographic logD [1]: 2.3 ± 0.01
Compound: NC[C@@H](O)CCN1c2ccccc2N(c2ccccc2)S1(=O)=O [HAPTHI, (S)-1-(4-amino-3-hydroxybutyl)-3-phenyl-1,3-dihydrobenzo[c][1,2, 5]thiadiazole 2,2-dioxide]

- chromatographic logD [1]: 2.27 ± 0.01
Compound: CNC[C@@H](O)CCN1c2ccccc2N(c2ccccc2)S1(=O)=O [Me@HAPTHI, (S)-1-(3-hydroxy-4-(methylamino)butyl)-3-phenyl-1,3-dihydrobenzo[c][1,2, 5]thiadiazole 2,2-dioxide]

- unspecific filter retention [6]: 51.26 ± 0.78%
Compound: [11CH3]NC[C@@H](O)CCN1c2ccccc2N(c2ccccc2)S1(=O)=O [[^11C]Me@HAPTHI, (S)-1-(3-hydroxy-4-([^11C]methylamino)butyl)-3-phenyl-1,3-dihydrobenzo[c][1,2, 5]thiadiazole 2,2-dioxide]

Reference: paper PMC4467816 (EJNMMI Research, 2015)
